The target in one assay is T1, DENV4 FL NS5 (Dengue virus type 4, UniProt P09866).
T1 construct: 100 nM DENV FL NS5 protein was added; made in house
The experiment in a line: biochemical. As to conditions: Enzyme + compound 20 min, then ssRNA and nucleotides, 2 hr; averaged from ≥3 experiments; read-out: DENV FL NS5 de novo initiation FAPA, IC50, DENV4. The procedure:
(§1) DENV1-4 FL NS5 dnI assays were performed as described previously. Briefly, compounds from 0–20 or -100 μM concentrations are two-fold serially diluted into 384-well black opaque plates (Corning Costar), after which 100 nM DENV FL NS5 protein was added and the plates incubated at RT for 20 min. RNA and ATTO-CTP, ATP, GTP and UTP were then added and the plates incubated for another 120 min. […] For order-of-addition experiments, DENV4 FL NS5 was incubated for one hour at RT with RNA, ATP, and GTP or RNA, ATP, GTP and ATTO-CTP, followed by exposure to serially diluted compounds for 20 min at RT. The missing components (ATTO-CTP and UTP or UTP alone) were added and the reactions continued for 120 min after which STOP buffer was added as before. All datapoints were performed in duplicate wells. Each compound was tested at least twice.
(§2) 2 Co mpound testing with DENV dn I FAPA assays. Final dn I assa y reaction mixtures
(§3) 3 contained 100 nM DENV 5 ´UTR-L-3´UTR IVT RNA, 20 µ M ATP, 20 µM GTP, 20 µM
(§4) 4 UTP, 5 µM ATTO -CTP, and 100 nM of DENV FL NS5 protein in 15 µl in assa y buffer
(§5) 5 comprising 50 mM Tris/ HCl, pH 7.5, 10 mM KCl, 1 mM MgCl2, 0.3 mM MnCl2 (DENV2
(§6) 6 and 4) or 1 mM MnCl 2 (DENV1 and 3), 0.001% Triton- X-100 and 10 µ M cystein e [ 1] . To
(§7) 7 perform dose-respons e inhibition measurements, compounds from 0- 20 or - 100 µM
(§8) 8 concentr ations are two -fold seriall y diluted into 384-well black opaqu e plat es (Corning
(§9) 9 Costar), after which 100 nM DENV FL NS5 protein was added into resp ect ive wells. The
(§10) 10 plates wer e sealed, b riefl y shak en and centrif uged at 1500 rpm for 30 sec and incubated at RT
(§11) 11 for 15 min. Thereafter,RNA and ATTO -CTP, ATP, GTP and UTP were added to the wells to
(§12) 12 start the reactions. The pl ates wer e re-seal ed, shaken and centrifuged as before, followed b y
(§13) 13 incubation RT for 120 min.
(§14) 15 intestinal phosphatase (CIP), re- incubation at RT for 60 min and read on a Tecan Safire II
(§15) 16 microplate reader. For o r der-of-addition experiments, DENV4 FL NS5 was incubated for one
(§16) 17 hour at RT with RNA, ATP, and GTP or RNA, ATP, GTP and ATTO-CTP, followed by
(§17) 18 exposure to seriall y dilut ed compounds for 20 mi n at RT. The missing components (ATTO-
(§18) 19 CTP and UTP or UTP alone) were added and the reactions continued for 120 min after which
(§19) 20 STOP buffer was added as before. All datapoints were performed in duplicate wells. Each
21 compound was tested at l east twice. […]

For another assay, the target named is T2, DENV2 FL NS5 (Dengue virus type 2, UniProt P14340).
T2 construct: made in house
Nature of the assay: DENV2 FL NS5 de novo initiation FAPA assay. To be noted: one experiment; read-out: DENV FL NS5 de novo initiation FAPA, IC50, DENV2. In kind it is biochemical. The procedure:
as §1, §2, §3, §4, §5, §6, §7, §8, §9, §10, §11, §12, §13, §14, §15, §16, §17, §18, §19
21 compound was tested at l east twice.
23 Compound testing in DENV1-4 infected cells by high content imaging. Approximatel y 7
24 × 10^3 A549 cells per well were s eeded into 384-well plates in Ham’s F-12K medium

A further assay deals with DENV1, strain MY97-10245. Nature of the assay: DENV1 infected A549 cells, high content imaging (HCI). The format is cell-based. To be noted: 48 hr. As to the method: as §2, §3, §4, §5, §6, §7, §8, §9, §10, §11, §12
(§20) 13 incubation RT for 120 min. […]
as §14
(§21) 16 microplate reader. […]
(§22) 8 DENV envelope protein ) and DRAQ5 (for nucl ear DNA) . Quantifications of DENV
(§23) 9 envelope protein were determined using the Opera high content imaging s ystem and anal ysis […]
(§24) 17 µM concentrations. At 48 hr of post-incubation, r enilla luciferas e activities were measured […]

The subject of a further assay is DENV4, strain MY01-22713. Nature of the assay: DENV4 infected A549 cells, high content imaging (HCI). The format is cell-based. To be noted: 48 hr. As to the method: as §2, §3, §4, §5, §6, §7, §8, §9, §10, §11, §12, §20, §14, §21, §22, §23, §24
The target in the next assay is T3, DENV1 FL NS5 (Dengue virus type 1, UniProt P17763).
T3 construct: 100 nM DENV FL NS5 protein was added; made in house
To be noted: read-out: DENV FL NS5 de novo initiation FAPA, IC50, DENV1; cited from earlier work.

The IC50 is the concentration that inhibits the measured activity by half. Usually EC50 stands for the concentration at which the effect is half-maximal. Low values mean an effect from little substance, high ones a need for much substance.

T3 sequence (P17763 2494-3392): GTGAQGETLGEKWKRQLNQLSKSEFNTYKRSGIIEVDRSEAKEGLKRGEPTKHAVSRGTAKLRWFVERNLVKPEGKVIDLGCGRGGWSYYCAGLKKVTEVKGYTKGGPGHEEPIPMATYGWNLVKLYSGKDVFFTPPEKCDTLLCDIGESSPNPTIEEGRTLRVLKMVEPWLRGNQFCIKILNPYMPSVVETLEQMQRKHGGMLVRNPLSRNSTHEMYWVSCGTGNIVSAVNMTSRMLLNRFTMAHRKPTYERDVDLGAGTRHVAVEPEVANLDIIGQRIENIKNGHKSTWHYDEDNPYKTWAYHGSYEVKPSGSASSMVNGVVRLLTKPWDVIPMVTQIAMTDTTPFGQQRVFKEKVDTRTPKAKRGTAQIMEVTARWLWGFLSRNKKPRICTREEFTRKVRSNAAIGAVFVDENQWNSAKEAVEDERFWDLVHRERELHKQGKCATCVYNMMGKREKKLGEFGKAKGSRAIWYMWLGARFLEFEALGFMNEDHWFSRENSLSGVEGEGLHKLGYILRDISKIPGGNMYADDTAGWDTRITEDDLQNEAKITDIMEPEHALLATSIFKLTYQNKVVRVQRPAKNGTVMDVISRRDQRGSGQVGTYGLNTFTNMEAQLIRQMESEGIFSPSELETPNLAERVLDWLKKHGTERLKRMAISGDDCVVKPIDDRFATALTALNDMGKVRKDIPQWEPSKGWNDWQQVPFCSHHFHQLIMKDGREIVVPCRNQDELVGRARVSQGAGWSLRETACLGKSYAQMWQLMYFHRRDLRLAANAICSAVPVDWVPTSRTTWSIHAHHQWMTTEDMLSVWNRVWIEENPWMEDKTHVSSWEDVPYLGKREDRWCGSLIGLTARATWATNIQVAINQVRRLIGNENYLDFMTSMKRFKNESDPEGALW
T1 sequence (P09866 2488-3387): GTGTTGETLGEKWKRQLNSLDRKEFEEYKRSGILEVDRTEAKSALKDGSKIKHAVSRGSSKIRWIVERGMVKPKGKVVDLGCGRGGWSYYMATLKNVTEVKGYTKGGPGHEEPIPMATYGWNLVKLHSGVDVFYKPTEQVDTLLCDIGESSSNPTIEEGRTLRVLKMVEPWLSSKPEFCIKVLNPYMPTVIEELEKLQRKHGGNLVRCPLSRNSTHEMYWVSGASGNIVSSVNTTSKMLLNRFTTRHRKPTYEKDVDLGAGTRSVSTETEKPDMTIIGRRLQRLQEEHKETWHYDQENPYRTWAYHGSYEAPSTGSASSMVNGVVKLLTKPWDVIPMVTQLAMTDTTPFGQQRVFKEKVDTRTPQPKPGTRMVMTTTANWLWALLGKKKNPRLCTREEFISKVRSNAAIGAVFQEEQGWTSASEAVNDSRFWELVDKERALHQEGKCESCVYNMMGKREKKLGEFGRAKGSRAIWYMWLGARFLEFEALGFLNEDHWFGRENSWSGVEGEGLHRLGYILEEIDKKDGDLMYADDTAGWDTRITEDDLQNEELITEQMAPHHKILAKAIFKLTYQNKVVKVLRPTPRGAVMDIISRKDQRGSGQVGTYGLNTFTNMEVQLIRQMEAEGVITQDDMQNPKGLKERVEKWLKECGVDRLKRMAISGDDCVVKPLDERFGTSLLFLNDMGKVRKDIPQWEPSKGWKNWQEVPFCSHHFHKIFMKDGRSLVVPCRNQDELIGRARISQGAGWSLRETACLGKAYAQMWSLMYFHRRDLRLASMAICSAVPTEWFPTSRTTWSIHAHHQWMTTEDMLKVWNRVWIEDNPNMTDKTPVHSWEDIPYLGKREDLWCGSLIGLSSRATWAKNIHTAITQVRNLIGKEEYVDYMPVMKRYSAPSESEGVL

With `COc1cccc(S(=O)(=O)NC(=O)c2cc(-c3ccc(C#CCO)s3)c(OC)cc2C)c1` [Compound 26i], the IC50 was 109 ± 61 nM on DENV4 FL NS5 and 86 nM on DENV2 FL NS5. Also, the EC50 is 15.2 µM with DENV1, strain MY97-10245 and 20.4 µM with DENV4, strain MY01-22713.

Regarding `COc1cccc(S(=O)(=O)NC(=O)c2cc(-c3ccc(C#CCO)s3)c(OC)cc2OC)c1` [Compound 27], at DENV1 FL NS5, the concentration for half-maximal inhibition (IC50) was 68 nM.

Values taken from publication PMC4976923, “Potent Allosteric Dengue Virus NS5 Polymerase Inhibitors: Mechanism of Action and Resistance Profiling” (PLoS Pathogens, 2016).
